Consider three compounds from ChEMBL document CHEMBL1201862, “PubChem BioAssay data set” (2004).

In general, AC50 refers to the midpoint of the concentration-response curve, whichever way the signal moves. For orientation: IC50 means the midpoint of a concentration-inhibition curve. Usually EC50 stands for the concentration needed to bring the measured effect to its halfway point. A word on the CC50: it is the concentration giving 50% cytotoxicity.

Assay [1] addresses T1, Microphthalmia-associated transcription factor (Homo sapiens, UniProt O75030).
T1 sequence (O75030 whole entry): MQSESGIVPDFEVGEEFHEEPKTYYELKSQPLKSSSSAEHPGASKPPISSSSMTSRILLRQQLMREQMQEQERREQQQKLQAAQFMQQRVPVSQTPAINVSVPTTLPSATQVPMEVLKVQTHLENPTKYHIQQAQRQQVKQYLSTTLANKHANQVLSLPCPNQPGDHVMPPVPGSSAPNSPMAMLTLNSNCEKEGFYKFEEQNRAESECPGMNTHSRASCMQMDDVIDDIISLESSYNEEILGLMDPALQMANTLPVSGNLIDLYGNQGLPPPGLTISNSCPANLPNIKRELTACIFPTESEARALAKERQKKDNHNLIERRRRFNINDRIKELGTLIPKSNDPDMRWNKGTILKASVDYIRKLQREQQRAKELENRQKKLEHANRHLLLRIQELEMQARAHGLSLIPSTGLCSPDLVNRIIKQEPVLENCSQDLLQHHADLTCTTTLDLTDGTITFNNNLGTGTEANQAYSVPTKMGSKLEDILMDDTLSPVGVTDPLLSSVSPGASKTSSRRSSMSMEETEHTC
Kind of assay: reducers of TRPM1 reporter luminescence, concentration series – cell-based, SK-MEL-5, cherry-picked, set 3, MITF inhibitor project, dose response (AID 493073).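 Further: SK-MEL-5 melanoma cells with luciferase driven by the MITF target TRPM1 promoter.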 Format: functional.

In assay [2] the target is T2, Replicative DNA helicase DnaB (Mycobacterium tuberculosis, UniProt P9WMR3).
T2 sequence (P9WMR3 whole entry): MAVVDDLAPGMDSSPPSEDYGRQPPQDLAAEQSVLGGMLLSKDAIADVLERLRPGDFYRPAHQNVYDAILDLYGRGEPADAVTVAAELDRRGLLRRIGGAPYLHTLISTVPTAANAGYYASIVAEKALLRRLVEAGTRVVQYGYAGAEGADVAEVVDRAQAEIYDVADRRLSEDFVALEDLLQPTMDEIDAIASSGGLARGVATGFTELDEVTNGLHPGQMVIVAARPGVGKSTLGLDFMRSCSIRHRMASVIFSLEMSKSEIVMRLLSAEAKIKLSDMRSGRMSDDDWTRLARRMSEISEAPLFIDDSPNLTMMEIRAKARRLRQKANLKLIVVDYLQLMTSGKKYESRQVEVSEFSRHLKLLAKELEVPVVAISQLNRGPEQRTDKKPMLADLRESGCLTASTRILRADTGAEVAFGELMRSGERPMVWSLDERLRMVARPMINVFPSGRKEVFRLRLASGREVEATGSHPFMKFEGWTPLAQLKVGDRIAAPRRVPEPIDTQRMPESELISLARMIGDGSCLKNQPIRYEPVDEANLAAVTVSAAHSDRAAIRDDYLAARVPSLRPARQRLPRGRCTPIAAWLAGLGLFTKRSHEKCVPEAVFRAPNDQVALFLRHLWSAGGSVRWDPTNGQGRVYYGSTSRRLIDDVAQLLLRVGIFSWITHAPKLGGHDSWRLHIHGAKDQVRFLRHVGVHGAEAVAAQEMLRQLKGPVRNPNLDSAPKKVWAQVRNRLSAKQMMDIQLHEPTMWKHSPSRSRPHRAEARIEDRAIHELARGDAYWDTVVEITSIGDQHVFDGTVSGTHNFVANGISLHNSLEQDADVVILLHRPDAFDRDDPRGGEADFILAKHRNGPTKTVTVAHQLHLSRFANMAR
Kind of assay: DnaB intein splicing inhibitors, dose response, biochemical, cell-free fluorescence (AID 449749). Format: functional.

In assay [3] the target is T3, Apoptotic protease-activating factor 1 (Homo sapiens, UniProt O14727).
T3 sequence (O14727 whole entry): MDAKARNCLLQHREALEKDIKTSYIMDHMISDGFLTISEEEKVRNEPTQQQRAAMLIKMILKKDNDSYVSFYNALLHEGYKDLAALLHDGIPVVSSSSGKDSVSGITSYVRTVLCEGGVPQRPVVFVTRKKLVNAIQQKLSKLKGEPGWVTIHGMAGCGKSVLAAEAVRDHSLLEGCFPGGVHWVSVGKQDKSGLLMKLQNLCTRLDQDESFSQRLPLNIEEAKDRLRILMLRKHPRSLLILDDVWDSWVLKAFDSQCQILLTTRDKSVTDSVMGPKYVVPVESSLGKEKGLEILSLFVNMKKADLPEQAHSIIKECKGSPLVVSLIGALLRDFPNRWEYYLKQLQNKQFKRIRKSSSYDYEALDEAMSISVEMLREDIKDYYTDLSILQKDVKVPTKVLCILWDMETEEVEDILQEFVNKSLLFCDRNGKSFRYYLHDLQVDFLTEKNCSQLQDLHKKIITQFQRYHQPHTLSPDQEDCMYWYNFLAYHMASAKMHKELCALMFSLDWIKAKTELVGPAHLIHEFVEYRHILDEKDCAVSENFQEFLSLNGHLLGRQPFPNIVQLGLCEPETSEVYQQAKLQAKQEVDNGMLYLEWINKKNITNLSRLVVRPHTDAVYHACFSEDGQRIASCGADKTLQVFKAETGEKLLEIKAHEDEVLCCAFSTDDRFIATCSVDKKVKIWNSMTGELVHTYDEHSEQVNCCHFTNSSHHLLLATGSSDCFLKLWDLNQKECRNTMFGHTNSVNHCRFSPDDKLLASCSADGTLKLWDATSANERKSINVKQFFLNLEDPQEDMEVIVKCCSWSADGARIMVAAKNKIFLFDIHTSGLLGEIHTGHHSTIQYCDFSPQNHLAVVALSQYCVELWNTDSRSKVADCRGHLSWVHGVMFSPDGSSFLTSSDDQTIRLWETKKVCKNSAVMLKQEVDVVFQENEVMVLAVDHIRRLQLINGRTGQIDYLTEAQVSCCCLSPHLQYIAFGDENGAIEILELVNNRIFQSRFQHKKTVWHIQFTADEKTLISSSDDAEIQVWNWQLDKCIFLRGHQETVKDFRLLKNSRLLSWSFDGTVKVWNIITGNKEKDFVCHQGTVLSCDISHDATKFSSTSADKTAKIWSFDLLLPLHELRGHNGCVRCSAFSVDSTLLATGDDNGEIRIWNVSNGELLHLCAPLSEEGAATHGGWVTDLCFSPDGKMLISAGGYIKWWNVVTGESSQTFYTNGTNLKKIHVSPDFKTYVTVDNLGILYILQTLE
Format: functional.

In assay [4] the target is T4, Protein RecA (Mycobacterium tuberculosis, UniProt P9WHJ3).
T4 sequence (P9WHJ3 whole entry): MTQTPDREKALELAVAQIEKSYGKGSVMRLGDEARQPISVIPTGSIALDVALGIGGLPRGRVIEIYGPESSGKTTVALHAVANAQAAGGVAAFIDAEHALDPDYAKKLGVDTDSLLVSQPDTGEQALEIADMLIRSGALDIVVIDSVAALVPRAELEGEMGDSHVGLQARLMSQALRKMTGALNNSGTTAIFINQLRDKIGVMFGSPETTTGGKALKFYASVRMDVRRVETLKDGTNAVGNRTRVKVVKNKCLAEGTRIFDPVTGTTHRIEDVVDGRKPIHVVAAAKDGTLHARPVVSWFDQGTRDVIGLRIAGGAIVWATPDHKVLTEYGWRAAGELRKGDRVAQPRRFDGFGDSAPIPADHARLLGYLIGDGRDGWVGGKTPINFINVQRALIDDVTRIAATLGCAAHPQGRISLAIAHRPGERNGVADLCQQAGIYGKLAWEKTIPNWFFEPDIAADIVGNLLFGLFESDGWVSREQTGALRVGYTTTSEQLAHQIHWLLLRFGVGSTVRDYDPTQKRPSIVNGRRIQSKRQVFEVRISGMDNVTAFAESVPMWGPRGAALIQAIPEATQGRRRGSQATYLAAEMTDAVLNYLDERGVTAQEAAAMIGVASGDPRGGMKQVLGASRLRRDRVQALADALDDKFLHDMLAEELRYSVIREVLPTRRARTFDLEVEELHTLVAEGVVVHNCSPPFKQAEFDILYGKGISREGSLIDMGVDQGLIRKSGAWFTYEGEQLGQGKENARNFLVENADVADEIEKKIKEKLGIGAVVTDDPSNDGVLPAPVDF
Kind of assay: Fluorescence Cell-Free Homogeneous Dose Retest to Identify Inhibitors of RecA-Intein Splicing Activity. [Related pubchem assays (depositor defined):AID2097, AID2223, AID489010, AID492950]. Format: functional.

The test system of assay [5] is INS1. Kind of assay: INS-1E survival protection against cytokine death – cell-based, luminescence, retest, dose response (AID 449756).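 Further: cell death triggered by IL-1 beta plus TNF-alpha plus IFN-gamma mixture; protective hits raise ATP signal compared with cytokine alone wells.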 Format: functional. The settings on record: Rattus norvegicus.
Assay [6] addresses Glucose-6-phosphate 1-dehydrogenase (Homo sapiens, UniProt P11413). Kind of assay: inhibition of Homo sapiens G6PD, dose series – biochemical, fluorescence, selectivity assay for P. falciparum G6PD inhibitor project, dose response (AID 504792). Format: functional.
The nature of assay [7]: viability loss in HeLa cells – cytotoxicity control for MgcRacGAP inhibitor project, dose response (AID 624300). Format: functional.
Assay [8] has as its target T5, Rac GTPase-activating protein 1 (Homo sapiens, UniProt Q9H0H5).
T5 sequence (Q9H0H5 whole entry): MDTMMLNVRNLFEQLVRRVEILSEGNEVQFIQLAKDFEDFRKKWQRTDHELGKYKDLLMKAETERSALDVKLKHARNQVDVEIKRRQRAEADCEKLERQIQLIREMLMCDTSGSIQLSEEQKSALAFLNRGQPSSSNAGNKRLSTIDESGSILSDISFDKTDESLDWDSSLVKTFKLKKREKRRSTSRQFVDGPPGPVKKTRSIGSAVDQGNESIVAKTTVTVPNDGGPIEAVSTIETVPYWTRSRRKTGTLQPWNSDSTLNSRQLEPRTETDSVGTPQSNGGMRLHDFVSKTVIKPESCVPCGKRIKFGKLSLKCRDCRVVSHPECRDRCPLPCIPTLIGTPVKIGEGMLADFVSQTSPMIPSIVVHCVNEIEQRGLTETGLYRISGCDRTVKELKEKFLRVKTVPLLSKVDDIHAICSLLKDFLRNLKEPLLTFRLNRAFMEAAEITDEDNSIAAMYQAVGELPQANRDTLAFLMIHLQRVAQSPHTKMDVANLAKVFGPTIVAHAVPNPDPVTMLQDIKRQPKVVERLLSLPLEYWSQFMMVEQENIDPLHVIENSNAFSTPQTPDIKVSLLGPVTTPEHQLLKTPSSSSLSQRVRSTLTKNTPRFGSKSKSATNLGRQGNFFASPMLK
Kind of assay: blockers of MgcRacGAP-driven Rac1 GTP hydrolysis – biochemical, ADP Hunter fluorescence, primary and confirmatory, confirmation (AID 624330). Format: functional.

In assay [9] the target is T6, DNA repair protein RAD52 homolog (Homo sapiens, UniProt P43351).
T6 sequence (P43351 whole entry): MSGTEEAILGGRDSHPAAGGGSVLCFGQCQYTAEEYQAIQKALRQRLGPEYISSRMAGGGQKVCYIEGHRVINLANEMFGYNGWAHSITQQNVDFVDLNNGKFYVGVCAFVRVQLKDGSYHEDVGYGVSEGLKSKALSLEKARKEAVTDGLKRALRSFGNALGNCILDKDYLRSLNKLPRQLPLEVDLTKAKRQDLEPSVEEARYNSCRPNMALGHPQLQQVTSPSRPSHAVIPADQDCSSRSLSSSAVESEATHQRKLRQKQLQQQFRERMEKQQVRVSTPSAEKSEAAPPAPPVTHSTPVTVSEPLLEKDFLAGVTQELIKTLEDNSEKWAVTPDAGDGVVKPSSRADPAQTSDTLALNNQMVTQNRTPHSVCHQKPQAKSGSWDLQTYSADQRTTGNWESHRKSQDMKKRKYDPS
Format: functional, biochemical.

The target of assay [10] is Kallikrein-7 (Homo sapiens, UniProt P49862). Kind of assay: Fluorescence Intensity-based biochemical primary high throughput dose response assay to identify activators of kallikrein-7 (K7) zymogen.
Sequence of Kallikrein-7 (P49862 whole entry): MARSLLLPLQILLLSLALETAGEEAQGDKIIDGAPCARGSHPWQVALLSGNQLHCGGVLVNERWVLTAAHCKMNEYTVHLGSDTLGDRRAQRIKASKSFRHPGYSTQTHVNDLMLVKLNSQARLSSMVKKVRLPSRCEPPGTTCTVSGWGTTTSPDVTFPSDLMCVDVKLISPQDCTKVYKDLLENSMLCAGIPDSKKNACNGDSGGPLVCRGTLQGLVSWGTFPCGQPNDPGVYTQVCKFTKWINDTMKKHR

Active and inactive are the calls of the source. Bounds are passed on as bounds.

Sequence of Glucose-6-phosphate 1-dehydrogenase (P11413 whole entry): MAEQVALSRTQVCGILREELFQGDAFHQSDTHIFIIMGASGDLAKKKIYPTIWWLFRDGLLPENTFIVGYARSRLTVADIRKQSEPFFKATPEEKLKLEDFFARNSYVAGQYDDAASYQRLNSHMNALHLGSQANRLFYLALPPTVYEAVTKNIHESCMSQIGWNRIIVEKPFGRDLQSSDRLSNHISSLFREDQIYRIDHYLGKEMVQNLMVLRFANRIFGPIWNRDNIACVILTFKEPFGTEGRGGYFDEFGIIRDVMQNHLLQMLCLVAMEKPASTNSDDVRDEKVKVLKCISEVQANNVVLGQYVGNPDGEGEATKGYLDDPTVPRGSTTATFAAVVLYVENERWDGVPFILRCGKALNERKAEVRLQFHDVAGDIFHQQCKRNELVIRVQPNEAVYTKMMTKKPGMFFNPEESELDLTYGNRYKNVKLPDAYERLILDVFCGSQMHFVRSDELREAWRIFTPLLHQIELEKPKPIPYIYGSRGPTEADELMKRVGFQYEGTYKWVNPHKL

As to `O=C(NC1=C(Nc2ccc(Cl)cc2)C(=O)c2ccccc2C1=O)c1ccccc1`, the concentration at half-maximal activity (AC50) was 0.93 µM (active) in assay [1], 10.4 µM (active) in assay [2] and 6.9 µM (active) in assay [5]. For the same compound, in assay [3], the half-inhibitory concentration (IC50) was 39.7 µM (active). In addition, the EC50 in [4] is 6.55 µM (active).

Regarding `CN(C)/C=N/c1ccc2[nH]c3c4ccccc4nc-3cc2c1`, the figures for the IC50 in [6], in assay [3] and in assay [8] were > 80 µM (inactive), 30.7 µM (active) and 52.8 µM (active), respectively. Moreover, the CC50 in assay [7] was 100 µM (active). The AC50 in assay [9] was 3.13 µM (active). Besides, in assay [10], the EC50 is > 2.57 µM (active).

In the case of `CCOc1cc(CNc2ccc3c[nH]nc3c2)ccc1OC`, the AC50 in assay [2] is > 380 µM (inactive). Besides, in assay [3], the half-maximal inhibitory concentration (IC50) is 25.2 µM (active). Moreover, the EC50 in assay [4] was 7.37 µM (active).
